Results as given in patent US20160207930A1 (LEO PHARMA A/S, priority 2013, published 2016).

What was measured:
[1] = Hepatic intrinsic clearance following incubation in human liver microsomes; type: in vitro ADME; conditions: 0.5 μM test compound, NADPH, 0-30 min, scaled to g liver
Protocol: Hepatic Extraction Ratio from Hepatic Intrinsic Clearance Following Incubation in Human Liver Microsomes
The general procedure consists of an automated incubation system and LC-MS/MS analysis with human liver microsomes. Human liver microsomes are thawed rapidly in a waterbath at 37° C. and kept on ice until use. The human liver microsomes are diluted with 50 mM potassium phosphate buffer pH 7.4 to a protein concentration of 0.55 mg/mL. Test compounds and positive controls (Verapamil and Dextromethorphan, positive controls for CYP3A4 for CYP2D6 isoforms, respectively) are dissolved in methanol (or other appropriate solvent, if necessary) in order to obtain a 5 mM solution which is further diluted to the concentration of 50 μM. The stock solutions are prepared immediately before the test.
5 μL of 50 μM test compounds and controls are added to 445 μL-of the 0.55 mg/mL microsomes solution and the incubation mixture are pre-warmed at 37° C. for 5 minutes. The incubation reactions are initiated by adding 50 μL of pre-warmed NADPH regenerating system to the incubation mixtures. 50 μL-aliquots will be taken from the incubation mixtures at: 0, 3, 6, 9, 15 and 30 minutes and the reactions are stopped by adding 100 μL of ACN containing Rolipram, used as generic Internal Standard (IS). Samples are then diluted with 120 μL of Milli-Q water and centrifuged at 3000 rpm for 10 minutes, prior the LC-MS/MS analysis.
The integrated peak areas for test compounds at the selected time points are divided by the respective peak areas of the IS and the percent of parent remaining is calculated by normalizing the peak area ratio of parent to IS at 0 min. Observed rate constant (kobs) for parent degradation is calculated by determining the slope of the line of the graph of the natural log of percentage parent remaining versus time of incubation. From the rate of depletion (min−1) and volume of the incubation (mL), clearance is estimated. This is scaled for the protein in the incubation relative to that in the intact liver, for all species (mL/min/g liver).
Values for the Human in vitro Clint are expressed as mL/min/g liver.
Assuming a liver weight of 25.7 g/kg and a liver blood flow of 20.7 mL/min/kg, the hepatic extraction ratio, Eh, can be derived from the Human in vitro Clint:
E.g. a Human in vitro Clint of 2.4 mL/min/g liver corresponds to a hepatic extraction ratio of 75%.
Some compounds of the present invention were tested according to example 101.

[2] = target: T1, NK1 Receptor (Homo sapiens, UniProt P25103); experiment: NK1 receptor mediated intracellular [Ca2+] mobilization in U251 MG cells using FLIPR; type: cell-based; conditions: antagonism of Substance P (EC80), Fluo-4, read-out: NK1R mediated intracellular [Ca^2+] mobilization IC 50
T1 construct: Measurement of NK1 Receptor Mediated Intracellular [Ca^2+]; Mobilization in U251 MG Cells Using FLIPR; endogenous in cells; host or cells: U251 MG cells
Protocol: Measurement of NK1 Receptor Mediated Intracellular [Ca^2+] Mobilization in U251 MG Cells Using FLIPR
U251 MG cells were seeded into black walled clear-bottom 384-well plates (Greiner Bio-One GmbH, Frickenhausen, Germany) at a density of 15,000 cells/well in 50 μl culture medium and cultured overnight in a 37° C. 5% CO2 incubator. The cells were then loaded with the calcium sensitive dye Fluo-4 (Invitrogen) at 1 μM in buffer, containing 0.04% Pluronic F-127 (Sigma-Aldrich), and 2.5 mM probenecid (Sigma-Aldrich) for 60 min in a humidified atmosphere of 5% CO2. Thereafter, cells were washed three times in washing buffer containing 20 mM HEPES and 2.5 mM probenecid pH 7.3. Serial dilutions of test compounds in assay buffer containing 2% dimethyl sulfoxide (final concentration in the cell plate is 0.5% DMSO) and/or agonist were then automatically pipetted into each test well, and the peak fluorescence intensity was recorded (lex, 488 nm; lem, 540 nm) by the FLIPR instrument (Molecular Devices) for approximately 5 min. To measure antagonist potency, cell plates were first incubated with the test compound and intracellular fluorescence recorded for 5 minutes to check a potential agonist effect of the test compound. Cell plates were quickly removed from the FLIPR instrument and incubated for additional 10 minutes at 37° C. before being moved back to the FLIPR instrument for Substance P (EC80) addition. The response was measured as the peak relative fluorescence change after agonist addition.
Compound relative %-effect was normalized to the maximal response evoked by 100 nM Aprepitant in presence of the EC80 of Substance P and the antagonist potency determined by non-linear regression using GraphPad Prism (version 5) or the four-parameter logistic model in XLfit (IDBS, Guilford, UK) for Microsoft Excel (Microsoft, Redmond, Wash.). The IC50 value is defined as the molar concentration of a test compound that produces a response midway between the fitted top and the fitted bottom. pIC50=−log IC50
Formula is listed as follows:
Fit (% Effect calculated)=(A+((B−A)/(1+((C/X)̂D)))) • A: bottom value • B: top value • C: test compound concentration • X: Relative IC50 • D: Hill slope coefficient
Ref: Sullivan E, Tucker E M, and Dale I L. Measurement of [Ca^2+] using the Fluorometric Imaging Plate Reader (FLIPR). Methods Mol Biol 114:125-133, 1999.
Compounds of the present invention were tested according to example 100.

T1 sequence (P25103 whole entry): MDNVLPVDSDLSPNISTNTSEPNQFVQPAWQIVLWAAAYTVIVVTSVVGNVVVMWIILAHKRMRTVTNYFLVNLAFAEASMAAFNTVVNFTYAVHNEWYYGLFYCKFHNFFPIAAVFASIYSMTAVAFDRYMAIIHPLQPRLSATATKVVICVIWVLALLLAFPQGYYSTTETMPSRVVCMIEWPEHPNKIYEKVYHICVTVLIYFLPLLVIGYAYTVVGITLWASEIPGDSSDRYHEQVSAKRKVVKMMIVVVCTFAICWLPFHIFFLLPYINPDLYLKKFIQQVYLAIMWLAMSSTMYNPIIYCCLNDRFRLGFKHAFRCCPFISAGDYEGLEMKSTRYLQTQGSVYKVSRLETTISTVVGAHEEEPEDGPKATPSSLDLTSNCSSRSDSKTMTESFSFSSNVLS

Row | Human in vitro Clint [1] [mL/min/g] | IC50 [2] [nM] | SMILES
1 | >200 | 11 | CCc1ccccc1[C@H]1[C@@H]2CCC(=O)N2CCN1C(=O)N(C)[C@H](C)c1cc(C(F)(F)F)cc(C(F)(F)F)c1 (single isomer, unassigned) [Compound 69]
2 | >200 | 0.94 | CCc1cc([C@@H](C)N(C)C(=O)N2CCN3C(=O)CC[C@H]3[C@@H]2c2ccccc2CC)cc(C(F)(F)F)c1 (single isomer, unassigned) [Compound 70]
3 | >200 | 49 | CCc1cc([C@@H](C)N(C)C(=O)N2CCN3C(=O)CC[C@H]3[C@@H]2c2ccccc2CC)cc(C(F)(F)F)c1 (single isomer, unassigned) [Compound 71]
4 | >200 | 0.243 | CCc1cc([C@@H](C)N(C)C(=O)N2CCN3C(=O)C(CCO)(CCO)CC3C2c2ccc(OC)cc2C)cc(C(F)(F)F)c1 (some centres unmarked) [Compound 16]
5 | >200 | 0.799 | COc1ccc([C@H]2[C@@H]3CC(CCO)(CCO)C(=O)N3CCN2C(=O)N(C)[C@H](C)c2cc(C)cc(C(F)(F)F)c2)c(C)c1 [Compound 17, (1S,8aS)-7,7-bis(2-hydroxyethyl)-1-(4-methoxy-2-methylphenyl)-N-methyl-N—((R)-1-(3-methyl-5-(trifluoromethyl)phenyl)ethyl)-6-oxohexahydropyrrolo[1,2-a]pyrazine-2(1H)-carboxamide]
6 | 40 | 0.137 | Cc1cc(F)ccc1[C@H]1[C@@H]2CCC(=O)N2CCN1C(=O)N(C)[C@H](C)c1cc(C(F)(F)F)cc(C(F)(F)F)c1 [Compound 20, (1S,8aS)—N—((R)-1-(3,5-bis(trifluoromethyl)phenyl)ethyl)-1-(4-fluoro-2-methylphenyl)-N-methyl-6-oxohexahydropyrrolo[1,2-a]pyrazine-2(1H)-carboxamide]
7 | 36 | 0.083 | Cc1cc([C@@H](C)N(C)C(=O)N2CCN3C(=O)CC[C@H]3[C@@H]2c2ccc(F)cc2C)cc(C(F)(F)F)c1 [Compound 21, (1S,8aS)-1-(4-fluoro-2-methylphenyl)-N-methyl-N—((R)-1-(3-methyl-5-(trifluoromethyl)phenyl)ethyl)-6-oxohexahydropyrrolo[1,2-a]pyrazine-2(1H)-carboxamide]
8 | >200 | 0.197 | Cc1cc(F)ccc1[C@H]1[C@@H]2CCC(=O)N2CCN1C(=O)N(C)[C@H](C)c1cc(C(C)C)cc(C(F)(F)F)c1 [Compound 22, (1S,8aS)-1-(4-fluoro-2-methylphenyl)-N-(1-(3-isopropyl-5-(trifluoromethyl)phenyl)ethyl)-N-methyl-6-oxohexahydropyrrolo[1,2-a]pyrazine-2(1H)-carboxamide]
9 | 78 | 0.037 | CCc1cc([C@@H](C)N(C)C(=O)N2CCN3C(=O)CC[C@H]3[C@@H]2c2ccc(F)cc2C)cc(C(F)(F)F)c1 [Compound 23, (1S,8aS)—N—((R)-1-(3-ethyl-5-(trifluoromethyl)phenyl)ethyl)-1-(4-fluoro-2-methylphenyl)-N-methyl-6-oxohexahydropyrrolo[1,2-a]pyrazine-2(1H)-carboxamide]
10 | >200 | 0.08 | CCc1cc([C@@H](C)N(C)C(=O)N2CCN3C(=O)C(CCO)(CCO)C[C@H]3[C@@H]2c2ccc(F)cc2C)cc(C(F)(F)F)c1 [Compound 24, (1S,8aS)—N—((R)-1-(3-ethyl-5-(trifluoromethyl)phenyl)ethyl)-1-(4-fluoro-2-methylphenyl)-7,7-bis(2-hydroxyethyl)-N-methyl-6-oxohexahydropyrrolo[1,2-a]pyrazine-2(1H)-carboxamide]
11 | 128 | 0.08 | Cc1cc(F)ccc1[C@H]1[C@@H]2CC(CCO)(CCO)C(=O)N2CCN1C(=O)N(C)[C@H](C)c1cc(C(C)C)cc(C(F)(F)F)c1 [Compound 25, (1S,8aS)-1-(4-fluoro-2-methylphenyl)-7,7-bis(2-hydroxyethyl)-N—((R)-1-(3-isopropyl-5-(trifluoromethyl)phenyl)ethyl)-N-methyl-6-oxohexahydropyrrolo[1,2-a]pyrazine-2(1H)-carboxamide]
12 | >200 | 7.36 | Cc1cc(OCc2ccccc2)ccc1[C@H]1[C@@H]2CCC(=O)N2CCN1C(=O)N(C)[C@H](C)c1cc(C(F)(F)F)cc(C(F)(F)F)c1 [Compound 26, (1S,8aS)-1-(4-(benzyloxy)-2-methylphenyl)-N—((R)-1-(3,5-bis(trifluoromethyl)phenyl)ethyl)-N-methyl-6-oxohexahydropyrrolo[1,2-a]pyrazine-2(1H)-carboxamide]
13 | >200 | 0.064 | Cc1cc(O)ccc1[C@H]1[C@@H]2CCC(=O)N2CCN1C(=O)N(C)[C@H](C)c1cc(C(F)(F)F)cc(C(F)(F)F)c1 [Compound 27, (1S,8aS)—N—((R)-1-(3,5-bis(trifluoromethyl)phenyl)ethyl)-1-(4-hydroxy-2-methylphenyl)-N-methyl-6-oxohexahydropyrrolo[1,2-a]pyrazine-2(1H)-carboxamide]
14 | >200 | 0.11 | CCc1cc([C@@H](C)N(C)C(=O)N2CCN3C(=O)CC[C@H]3[C@@H]2c2ccc(O)cc2C)cc(C(F)(F)F)c1 [Compound 28, (1S,8aS)—N—((R)-1-(3-ethyl-5-(trifluoromethyl)phenyl)ethyl)-1-(4-hydroxy-2-methylphenyl)-N-methyl-6-oxohexahydropyrrolo[1,2-a]pyrazine-2(1H)-carboxamide]
15 | >200 | 0.114 | COc1ccc([C@H]2[C@@H]3CC(CCO)(CCO)C(=O)N3CCN2C(=O)N(C)[C@H](C)c2cc(C(F)(F)F)cc(C(F)(F)F)c2)c(C)c1 [Compound 29, (1S,8aS)—N—((R)-1-(3,5-bis(trifluoromethyl)phenyl)ethyl)-7,7-bis(2-hydroxyethyl)-1-(4-methoxy-2-methylphenyl)-N-methyl-6-oxohexahydropyrrolo[1,2-a]pyrazine-2(1H)-carboxamide]
16 | 18 | 0.116 | Cc1cc(O)ccc1[C@H]1[C@@H]2CC(CCO)(CCO)C(=O)N2CCN1C(=O)N(C)[C@H](C)c1cc(C(F)(F)F)cc(C(F)(F)F)c1 [Compound 30, (1S,8aS)—N—((R)-1-(3,5-bis(trifluoromethyl)phenyl)ethyl)-1-(4-hydroxy-2-methylphenyl)-7,7-bis(2-hydroxyethyl)-N-methyl-6-oxo-hexahydropyrrolo[1,2-a]pyrazine-2(1H)-carboxamide]
